From the supplement of paper PMC9334596
Structures can show the parent of a compound that is named as a salt.

System: mPer2Luc MEF
Experiment: PER2::LUC luminescence relative to vehicle control (fold of vehicle); higher = higher PER2::LUC reporter signal
Procedure: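 Secondary dose-response validation of 72 circadian-modulating compounds in mPer2Luc MEFs, threefold dilution series of six doses from 10 uM down to 0.04 uM. PER2::LUC luminescence read at 24 h and 30 h after treatment, normalised to vehicle (DMSO) control.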

[1] = time after treatment: 24-hour, concentration: 0.04μM
[2] = time after treatment: 24-hour, concentration: 0.37μM
[3] = time after treatment: 24-hour, concentration: 3.33μM
[4] = time after treatment: 24-hour, concentration: 10μM
[5] = time after treatment: 30-hour, concentration: 0.04μM
[6] = time after treatment: 30-hour, concentration: 0.37μM
[7] = time after treatment: 30-hour, concentration: 3.33μM
[8] = time after treatment: 30-hour, concentration: 10μM

SMILES	PER2::LUC luminescence [1]	PER2::LUC luminescence [2]	PER2::LUC luminescence [3]	PER2::LUC luminescence [4]	PER2::LUC luminescence [5]	PER2::LUC luminescence [6]	PER2::LUC luminescence [7]	PER2::LUC luminescence [8]
Cc1ccc(NC(=O)Nc2cc(C(F)(F)F)ccc2F)cc1Nc1ccc2c(c1)NC(=O)/C2=C\c1ccc[nH]1 [GNF-5837]	1.07	1.06	1.15	0.539	1.05	1.05	1.2	0.751
Cc1cc2sc(NC(=O)Cc3ccccc3)nc2cc1Cl [LH-846]	1.17	1.3	1.46	1.28	1.37	1.53	1.75	1.26
Cc1ccc(NC(=O)c2cccc(N(C)C)c2)cc1NC(=O)c1ccc(O)cc1	0.95	0.979	1.07	1.36	0.924	0.932	1.01	1.65
CN1CCN(S(=O)(=O)c2ccc(-c3cnc(N)c(C(=O)Nc4cccnc4)n3)cc2)CC1 [AZD2858]	1.18	1.37	1.01	0.842	0.938	1.16	0.874	0.676
O=C(c1ccc(F)c(F)c1Nc1ccc(I)cc1F)N1CC(O)([C@@H]2CCCCN2)C1 [Cobimetinib]	0.419	0.495	0.11	0.015	0.459	0.437	0.168	0.007
CCc1cncnc1N1CCN(Cc2nc3ccc(C(F)(F)F)cc3[nH]2)CC1	1.03	1	1.01	1.06	1	1.03	1.01	1.03
NS(=O)(=O)c1ccc(NC(=O)Nc2ccc(F)cc2)cc1 [U-104]	1.04	1.05	1.01	0.876	1.05	1.06	1.06	0.947
O=C(O)CCCCC(CCSCc1ccccc1)SCc1ccccc1 (stereo not drawn) [CPI-613]	1	0.991	1.05	1.09	1.02	0.999	1.04	1.03
O=C(/C=C/c1cccnc1)NCCCCC1CCN(C(=O)c2ccccc2)CC1 [FK866]	0.987	1.02	0.955	0.89	0.67	0.643	0.595	0.49
COc1cc(CCc2cc(NC(=O)c3ccc(N4CC(C)NC(C)C4)cc3)n[nH]2)cc(OC)c1 (stereo not drawn) [AZD4547]	0.792	0.795	0.679	0.329	0.796	0.73	0.643	0.278
CC(C)(C)c1ccc(-c2nc3ccccc3[nH]2)cc1 [ZLN005]	0.223	0.131	0.076	0.065	0.357	0.204	0.098	0.075
COc1cc(-c2nc3ccccc3s2)ccc1O [YL-109]	1.05	1.08	1.31	1.39	1.13	1.16	1.42	1.53
CN1CCN(C2CCC(n3cc(-c4ccc(Oc5ccccc5)cc4)c4c(N)ncnc43)CC2)CC1 (stereo not drawn)	0.613	0.502	0.203	0.006	0.566	0.477	0.212	0.003
Cc1ccc(-n2nc(C(C)(C)C)cc2NC(=O)Nc2ccc(OCCN3CCOCC3)c3ccccc23)cc1 [BIRB 796 (Doramapimod)]	0.968	0.966	0.963	1.09	0.892	0.941	0.924	1.26
O=C(NC1CC1)c1cc(-c2cccs2)on1 [N-cyclopropyl-5-(thiophen-2-yl)-1,2-oxazole-3-carboxamide]	1.3	1.33	1.66	1.76	1.37	1.44	1.79	1.99
O=C1c2ccccc2C(=O)c2oc(-c3ccccc3)nc21 [SJB2-043]	1.11	1.29	1.94	1.65	1.17	1.2	1.36	1.11
Cc1cccc(C#Cc2ccccc2)n1 [MPEP Hydrochloride]	1.11	1.19	1.33	1.39	1.22	1.41	1.57	1.73
CN1CCc2c(c3ccccc3n2Cc2ccc(C(=O)NO)cc2)C1 [Tubastatin A HCl]	1.07	1.05	1.05	0.699	0.984	0.982	0.916	0.576
COc1cc(C(=O)N2CCC(N3CCN(C)CC3)CC2)ccc1Nc1ncc2c(n1)N(C)c1ccccc1C(=O)N2C [LRRK2-IN-1]	0.815	0.751	0.337	0.1	0.817	0.716	0.351	0.098
Cc1ccc2nc(NCCN)c3ncc(C)n3c2c1	0.893	0.859	0.768	0.028	0.841	0.784	0.594	0.03
CC(C)NC[C@@H](C(=O)N1CCN(c2ncnc3c2[C@H](C)C[C@H]3O)CC1)c1ccc(Cl)cc1 [GDC-0068]	0.898	0.743	0.674	0.481	0.917	0.776	0.619	0.434
